Data set [1] can be described thus: pKa measurement of unformulated amine lipid (fluorescence, method of Jayaraman et al.). The settings on record: 100 μM in 0.1 M phosphate buffer, pH 2.0-12.0. The data set is classed as physicochemical. On the procedure: The pKa of each amine lipid was determined according to the method in Jayaraman, et al. (Angewandte Chemie, 2012) with the following adaptations. […] Lipid was diluted to 100 μM in 0.1 M phosphate buffer (Boston Bioproducts) where the pH ranged from 2.0-12.0. Fluorescence intensity was measured using excitation and emission wavelengths of 321 nm and 448 nm.

Data set [2] in a line: RNA encapsulation efficiency of LNPs (Ribogreen fluorescence assay). Type of data set: physicochemical. The settings on record: LNP, sg:mRNA 1:2, N/P about 6, 50/9/38/3, TTR sgRNA (SEQ ID NO: 4); Table 6, Experiments 106-107. In outline: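 LNPs were diluted in 1× TE with 0.2% Triton X-100 (total RNA) or without it (free RNA), stained with RiboGreen for ~10 min at room temperature in the dark, and read at Ex 488/Em 525 nm against standard curves of the starting RNA. Encapsulation efficiency = (Total − Free)/Total.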

Data set [3] in a line: Dynamic light scattering of LNPs: Z-average diameter, number average diameter, PDI. The settings on record: LNP, sg:mRNA 1:2, N/P about 6, 50/9/38/3; Table 6, Experiments 106-107. Type of data set: physicochemical. In a few lines:
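LNP samples were diluted in PBS and measured by DLS to give intensity-based Z-average diameter, number average diameter and polydispersity index. PDI describes size spread around the mean, with zero meaning a uniform population.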

The subject of data set [4] is mouse TTR gene. Briefly: In vivo editing in mouse liver, sgRNA targeting TTR (G282 or G502), % indel by NGS. Also noted: species or system CD-1 female mice. As to conditions: guide G502, i.v. 0.1 mg/kg, sgRNA:Cas9 mRNA 1:2 w/w, experiments 106, 107. On the procedure:
CD-1 female mice ranging from 6-10 weeks of age were used in each study. Animals were weighed and grouped according to body weight for preparing dosing solutions based on group average weight. LNPs were dosed via the lateral tail vein in a volume of 0.2 mL per animal (approximately 10 mL per kilogram body weight). The animals were periodically observed for adverse effects for at least 24 hours post dose. For studies measuring in vivo editing in liver, CD-1 female mice were dosed at 0.1 mg/kg unless otherwise noted. Animals were euthanized at 6 or 7 days by ex sanguination via cardiac puncture under isoflurane anesthesia. Liver tissue was collected from each animal for DNA extraction and analysis. Blood was collected into serum separator tubes or into tubes containing buffered sodium citrate for plasma as described herein. Cohorts of mice were measured for editing by Next-Generation Sequencing (NGS).
In brief, to quantitatively determine the efficiency of editing at the target location in the genome, genomic DNA was isolated and deep sequencing was utilized to identify the presence of insertions and deletions introduced by gene editing.
PCR primers were designed around the target site (e.g., within B2M), and the genomic area of interest was amplified. Additional PCR was performed according to the manufacturer's protocols (Illumina) to add the necessary chemistry for sequencing. The amplicons were sequenced on an Illumina MiSeq instrument. The reads were aligned to the mouse or rat reference genome (e.g., GRCm38) after eliminating those having low quality scores. The resulting files containing the reads were mapped to the reference genome (BAM files), where reads that overlapped the target region of interest were selected and the number of wild type reads versus the number of reads which contain an insertion, substitution, or deletion was calculated.
The editing percentage (e.g., the “indel efficiency” or “percent indels”) was defined as the total number of sequence reads with insertions or deletions over the total number of sequence reads, including wild type.
We assessed in vivo editing efficiency for materials delivered with formulations including various amine lipid compounds. Editing was measured using either G282 (SEQ ID No: 1) which targets the mouse TTR gene or G650 (SEQ ID No. 2) which targets the mouse B2M gene. Lipids described above were assessed for efficacy through in vivo editing experiments. LNPs were formulated at a 1:1 or 1:1.3 w/w ratio of sgRNA to Cas9 mRNA, and at an N/P ratio of about 6. Molar concentrations of lipids in the lipid component of the LNPs are used at mol % amine lipid/DSPC/cholesterol/PEG-2k-DMG of 50/9/38/3. The final LNPs were characterized to determine the encapsulation efficiency, polydispersity index, and average particle size according to the analytical methods provided above. Analysis of average particle size, polydispersity (PDI), total RNA content and encapsulation efficiency of RNA are shown in Table 2.
To assess whether the editing was dose responsive, experiments were performed in vivo at various LNP dose levels. Cas9 mRNA of Example 120 was formulated as LNPs with an sgRNA targeting TTR (G282, SEQ ID NO: 1; or G502, SEQ ID NO: 4).
We assessed in vivo delivery by measuring editing efficiency for materials delivered with formulations that included various amine lipid compounds. Cas9 mRNA (SEQ ID NO: 6) was formulated as LNPs with an sgRNA targetting the TTR mouse gene (SEQ ID NO: 4). LNPs were formulated at a 1:2 w/w ratio of sgRNA to Cas9 mRNA, and at an N/P ratio of about 6. Molar concentrations of lipids in the lipid component of the LNPs are used at mol % amine lipid/DSPC/cholesterol/PEG-2k-DMG of 50/9/38/3. The final LNPs compositions were characterized and analyzed as described in Example 120. Analysis of average particle size, polydispersity (PDI), total RNA content and encapsulation efficiency of RNA are shown in Table 6.

Data set [5] relates to Transthyretin (TTR). Briefly: Serum TTR ELISA in mice after LNP dosing. Type of data set: in vivo, CD-1 female mice. The settings on record: guide G502, i.v. 0.1 mg/kg; for Serum TTR % TSS: mouse serum TTR relative to TSS control; for Serum TTR: mouse serum. In a few lines:
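Female CD-1 mice, 6–10 weeks, given LNPs by tail-vein injection (~10 mL/kg), 0.1 mg/kg unless noted; serum taken at day 6 or 7 by cardiac puncture. Total mouse TTR by ELISA on sera diluted 10,000-fold (0.1 mg/kg) or 10,000- and 2,500-fold (0.3 mg/kg).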

Broadly, the pKa is the pH at which an ionisable group is half protonated. Lower therefore signals a stronger acid or weaker base.

`CCCCC/C=C\C/C=C\CCCCCCCC(=O)OCC(COC(=O)CCC(OCCCCCCCC)OCCCCCCCC)COC(=O)NCCN1CCCCC1` (stereo not drawn) [Compound 101, 3-((4,4-bis(octyloxy)butanoyl)oxy)-2-((((2-(piperidin-1-yl)ethyl)carbamoyl)oxy)methyl)propyl (9Z,12Z)-octadeca-9,12-dienoate] yielded a pKa in data set [1] of 6.4. Also, the “% E” value in data set [2] is on record as 99%. Also, in data set [3], the “Number mean (nm)” value came to 58 nm, the PDI is reported as 0.04 and the “Z-avg (nm)” value is listed as 73 nm. In data set [4], the “Editing Mean % Indel” value was 25.9%. In data set [5], the “Serum TTR % TSS” value came to 56.1% and the “Serum TTR” value came out at 655.8 µg/mL.
In data set [1], `CCCCC/C=C\C/C=C\CCCCCCCC(=O)OCC(COC(=O)CCC(OCCCCCCCC)OCCCCCCCC)COC(=O)OCCCN1CCCCC1` (stereo not drawn) [Compound 102, 3-((4,4-bis(octyloxy)butanoyl)oxy)-2-((((3-(piperidin-1-yl)propoxy)carbonyl)oxy)methyl)propyl (9Z,12Z)-octadeca-9,12-dienoate] returned a pKa of 5.7. Further, the “% E” value in data set [2] is given as 98%. Also, in data set [3], the “Number mean (nm)” value was determined as 57 nm, the PDI stood at 0.02 and the “Z-avg (nm)” value came out at 71 nm. In data set [4], the “Editing Mean % Indel” value came to 19.6%. In data set [5], the “Serum TTR % TSS” value is recorded as 62.3% and the “Serum TTR” value turned out to be 728.1 µg/mL.
On to `CCCCC/C=C\C/C=C\CCCCCCCC(=O)OCC(COC(=O)CCC(OCCCCCCCC)OCCCCCCCC)COC(=O)NCCN1CCCCCC1` (stereo not drawn) [Compound 103, 3-(((2-(azepan-1-yl)ethyl)carbamoyl)oxy)-2-(((4,4-bis(octyloxy)butanoyl)oxy)methyl)propyl (9Z,12Z)-octadeca-9,12-dienoate], for which the pKa in data set [1] was 7. For the same compound, in data set [2], the “% E” value is recorded as 99%. In data set [3], the “Number mean (nm)” value stood at 50 nm, the PDI is reported as 0.05 and the “Z-avg (nm)” value amounted to 65 nm. The “Editing Mean % Indel” value in data set [4] came to 4.2%. In addition, in data set [5], the “Serum TTR % TSS” value was found to be 89.3% and the “Serum TTR” value amounted to 1043.8 µg/mL.
In data set [1], `CCCCCCCCCCCCCCCCCC(=O)OCC(COC(=O)CCC(OCCCCCCCC)OCCCCCCCC)COC(=O)OCCCN(CC)CC` (stereo not drawn) [Compound 114, 3-((4,4-bis(octyloxy)butanoyl)oxy)-2-((((3-(diethylamino)propoxy)carbonyl)oxy)methyl)propyl stearate] displayed a pKa of 6.13. Besides, the “% E” value in data set [2] stood at 96%. Further, in data set [3], the “Number mean (nm)” value was found to be 72 nm, the PDI is listed as 0.02 and the “Z-avg (nm)” value was 87 nm. Also, the “Editing Mean % Indel” value in data set [4] is given as 18.04%. In addition, in data set [5], the “Serum TTR % TSS” value is given as 88.4% and the “Serum TTR” value is 978.01 µg/mL.
Regarding `CCCCCCCC/C=C\CCCCCCCC(=O)OCC(COC(=O)CCC(OCCCCCCCC)OCCCCCCCC)COC(=O)OCCCN(CC)CC` (stereo not drawn) [Compound 115, 3-((4,4-bis(octyloxy)butanoyl)oxy)-2-((((3-(diethylamino)propoxy)carbonyl)oxy)methyl)propyl oleate], in data set [1], the pKa was 5.96. Besides, the “% E” value in data set [2] is 97%. Also, in data set [3], the “Number mean (nm)” value is 76 nm, the PDI came out at 0.01 and the “Z-avg (nm)” value is recorded as 93 nm. Moreover, the “Editing Mean % Indel” value in data set [4] stood at 19.68%. Further, in data set [5], the “Serum TTR % TSS” value turned out to be 73.8% and the “Serum TTR” value worked out at 816.3 µg/mL.
The compound `CC/C=C\C/C=C\C/C=C\CCCCCCCC(=O)OCC(COC(=O)CCC(OCCCCCCCC)OCCCCCCCC)COC(=O)OCCCN(CC)CC` (stereo not drawn) [Compound 116, 3-((4,4-bis(octyloxy)butanoyl)oxy)-2-((((3-(diethylamino)propoxy)carbonyl)oxy)methyl)propyl (9Z,12Z,15Z)-octadeca-9,12,15-trienoate] yielded a pKa in data set [1] of 6.04. For the same compound, the “% E” value in data set [2] turned out to be 99%. Besides, in data set [3], the “Number mean (nm)” value came out at 74 nm, the PDI is given as 0 and the “Z-avg (nm)” value is on record as 90 nm. Besides, the “Editing Mean % Indel” value in data set [4] is 34.48%. In data set [5], the “Serum TTR % TSS” value was found to be 51.3% and the “Serum TTR” value stood at 567.09 µg/mL.

The record behind these values is patent publication US20220402862A1 (Intellia Therapeutics, Inc., priority 2019, published 2022).
